In PubChem BioAssay AID1884 (NMMLSC, 2009):
Calls of active or inactive are those of the source. The rule behind the calls is not given here.

Target: Regulator of G-protein signaling 19 (Homo sapiens) (UniProt P49795)
Assay: modulators of RGS19-Galphao binding, dose response, biochemical, multiplexed bead flow cytometry (AID 1884)
Details: bead-based flow cytometry RGS19-Galphao binding

Regulator of G-protein signaling 19 (Homo sapiens), sequence (P49795 whole entry, looked up): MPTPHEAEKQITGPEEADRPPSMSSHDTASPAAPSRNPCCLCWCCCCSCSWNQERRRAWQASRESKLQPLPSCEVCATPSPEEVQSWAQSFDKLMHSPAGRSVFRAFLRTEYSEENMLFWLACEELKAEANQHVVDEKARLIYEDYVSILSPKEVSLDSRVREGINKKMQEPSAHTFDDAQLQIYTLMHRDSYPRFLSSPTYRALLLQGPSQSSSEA

Structure (SMILES) | EC50
COc1ccc(Br)cc1/C=N/Nc1cccc(C(=O)O)c1 | > 30000 nM (inactive)
CN(C)[C@@H]1C(=O)C(C(=O)NCN2CCCC2)=C(O)[C@@]2(O)C(=O)C3=C(O)c4c(O)cccc4[C@@](C)(O)C3CC12 (some centres not stated) | 7530 nM
CCOC(=O)N=Nc1c(O)n(C)c2ccccc12 | > 30000 nM (inactive)
CCOC(=O)C1=C(C)NC(C)=C(C(=O)OCCNC(=O)c2cccnc2)C1c1cccc([N+](=O)[O-])c1 (configuration not stated) | > 30000 nM (inactive)
O=c1[nH]c(=S)n(Cc2ccco2)c(O)c1C=NCc1cccs1 | > 30000 nM (inactive)
NS(=O)(=O)c1ccc(N/N=C/c2ccc(O)c(O)c2O)c([N+](=O)[O-])c1 | 680 nM
CC(C)Sc1nc2ccc(N3C(=O)C4CCCCC4C3=O)cc2s1 (configuration not stated) | > 30000 nM (inactive)
O=C1CCCC2=C1C(c1cccs1)n1ncnc1N2 (configuration not stated) | > 30000 nM (inactive)
CCOC(=O)/C(C(=O)Nc1ccccc1Cl)=C1/NC(C)(C)Cc2ccccc21 | > 30000 nM (inactive)

Same assay, conditions: bead-based flow cytometry RGS19-Galphao binding; measured here: Ki for RGS19-Galphao

Structure (SMILES) | Ki [nM]
NS(=O)(=O)c1ccc(CNC(=O)/C=C/c2ccco2)cc1 | 10600
CCCCn1c(-c2csc(C(C)C)c2)n[nH]c1=S | 10700
O=C(COc1ccccc1C(=O)N/N=C\c1ccc(O)c(O)c1)N/N=C/c1ccc(O)c(O)c1 | 3980
O=C1C(Cl)=C(N2CCCCC2)C(=O)C(Cl)=C1c1cnc(N2CCCCC2)s1 | 630
CCN(CC)S(=O)(=O)c1cccc(-c2n[nH]c(=S)n2/N=C/c2ccc(C(=O)OC)cc2)c1 | 5820
COC(=O)CCC(=O)Nc1sc(C)c(C)c1C(N)=O | 4090
Cc1cc(Cl)ccc1N=c1ssnc1Cl | 4130
O=C1CCC(=O)N(O)CCCCCNC(=O)CCC(=O)N(O)CCCCCNC(=O)CCC(=O)N(O)CCCCCN1 | 1930
CCN(CC)S(=O)(=O)c1cccc(C(=O)N/N=C/c2ccc(O)c(O)c2O)c1 | 2030
O=C(Cc1csc(N2CCOCC2)n1)N/N=C/c1ccc(O)c(O)c1O | 4600
CN(C)S(=O)(=O)c1cccc(-n2sc3ccccc3c2=O)c1 | 150
COc1ccccc1-n1c(-c2cc(-c3ccco3)[nH]n2)n[nH]c1=S | 13200
COc1ccc(OC)c(CCNC(=O)Cn2sc3nc(C)cc(C)c3c2=O)c1 | 1140
CN(C)[C@@H]1C(=O)C(C(=O)NCN2CCCC2)=C(O)[C@@]2(O)C(=O)C3=C(O)c4c(O)cccc4[C@@](C)(O)C3CC12 (some centres not stated) | 7070
CCOc1ccccc1-c1c2cc(O)c(=O)cc-2oc2cc(O)c(O)cc12 | 930
O=C(NCCCN1CCOCC1)c1sc2cc([N+](=O)[O-])ccc2c1Cl | 2050
CN=c1scc(C)n1/N=C/c1ccc(O)c(O)c1O | 2640
Cc1[nH]n(-c2ccccc2)c(=S)c1C=NCCCN=Cc1c(C)[nH]n(-c2ccccc2)c1=S | 2630
COc1ccc(C2=CC(=O)C=CC2=O)cc1 | 1840
O=[N+]([O-])c1ccc(Sc2cccc[n+]2[O-])c2nonc12 | 820
CN1CCN(C2=C(Cl)C(=O)C(c3cnc(N4CCCCC4)s3)=C(Cl)C2=O)CC1 | 10
CCCNC(=O)Cn1sc2nc(C)cc(C)c2c1=O | 930
CCOC(=O)c1sc(NC(=O)CSc2nnc(Cc3ccccc3)o2)c(C#N)c1C | 1330
Cc1cc(C)c2c(=O)n(CC(=O)Nc3ccc(Cl)cc3)sc2n1 | 1450
CCc1c(C(=O)Nc2ccccc2)c(C)[nH]c(=S)c1C#N | 10500
CC(=O)N1CC[n+]2c(-c3ccc([N+](=O)[O-])cc3)csc21 | 7170
Cc1ccc(-n2sc3ccccc3c2=O)cc1S(=O)(=O)N1CCCCC1 | 570

Structure (SMILES) | Ki [nM]
CC(NC(=O)c1sc2cc([N+](=O)[O-])ccc2c1Cl)C(C)(C)C (configuration not stated) | 960
O=c1c2ccccc2sn1-c1ccc(S(=O)(=O)N2CCCC2)cc1 | 950
Cc1[nH]n(-c2ccccc2)c(=S)c1C=Nc1cccc([N+](=O)[O-])c1 | 1590
CC1(C)OC(=O)C(=Cc2ccc(-c3ccc(S(N)(=O)=O)cc3)o2)C(=O)O1 | 2870
Cc1cc(C)c2c(=O)n(CC(=O)Nc3cccc(F)c3)sc2n1 | 1160
CCN1/C(=C/C(C)=C/c2sc3ccccc3[n+]2CC)Sc2ccccc21 | 5740
O=C(OCC1O[C@@H](OC(=O)c2cc(O)c(O)c(O)c2)[C@@H](OC(=O)c2cc(O)c(O)c(O)c2)[C@@H](OC(=O)c2cc(O)c(O)c(O)c2)[C@@H]1OC(=O)c1cc(O)c(O)c(O)c1)c1cc(O)c(O)c(O)c1 (some centres not stated) | 4120
NS(=O)(=O)c1ccc(N/N=C/c2ccc(O)c(O)c2O)c([N+](=O)[O-])c1 | 630
O=c1c2ccccc2sn1-c1ccccc1 | 300
CC(=O)N(O)CCCCCNC(=O)CCC(=O)N(O)CCCCCNC(=O)CCC(=O)N(O)CCCCCN | 3840
CCC(=O)NC(c1ccc(C)cc1)c1cc([N+](=O)[O-])c2cccnc2c1O (configuration not stated) | 2070
CCC(=O)NC1=C(Cl)C(=O)C(NC(=O)CC)=C(Cl)C1=O | 760
CC(=O)OCCCNc1cc(Sc2nc3ccccc3s2)c2nonc2c1[N+](=O)[O-] | 920
O=c1c2ccccc2sn1-c1cc(S(=O)(=O)N2CCOCC2)ccc1N1CCCC1 | 440
CCOC(=O)C1CCCN(C(=O)Cn2sc3nc(C)cc(C)c3c2=O)C1 (configuration not stated) | 2100
C/C(=N/NC(=O)c1cc(O)c(O)c(O)c1)c1ccc([N+](=O)[O-])cc1 | 18700
O=c1c2ccccc2sn1-c1cc(S(=O)(=O)N2CCOCC2)ccc1N1CCOCC1 | 110
Cc1cccc(N2CCN(C(=O)Cn3sc4nc(C)cc(C)c4c3=O)CC2C)c1 (configuration not stated) | 1270
O=C(O[C@@H]1OC2COC(=O)c3cc(O)c(O)c(O)c3-c3c(cc(O)c(O)c3O)C(=O)O[C@@H]([C@H]1O)[C@@H]2O)c1cc(O)c(O)c(O)c1 | 2980
COC(=O)c1c(-c2ccc(C(C)(C)C)cc2)csc1NC(=O)C1C2CCC(O2)C1C(=O)O (configuration not stated) | 7550
CN(C)c1ncc(C2=C(Cl)C(=O)C(N3CCCC3)=C(Cl)C2=O)s1 | 790
CCN=c1scc(C)n1/N=C/c1ccc(O)c(O)c1O | 4330
O=C(O)C[C@@H]1C(=O)O[C@@H]2C(COC(=O)c3cc(O)c(O)c(O)c3)O[C@@H](OC(=O)c3cc(O)c(O)c(O)c3)[C@@H](OC(=O)c3cc(O)c(O)c4c3[C@H]1[C@H](O)C(=O)O4)[C@H]2OC(=O)c1cc(O)c(O)c(O)c1 (some centres not stated) | 5370
Cc1ccc(NC(=O)Cn2sc3nc(C)cc(C)c3c2=O)c(Cl)c1 | 470
COCCCNC(=O)c1ccc2c3c(onc13)-c1ccccc1C2=O | 3630
Cc1ccccc1-n1sc2cc(F)ccc2c1=O | 430
